From ChEMBL document CHEMBL4665750, “Structure-Activity Relationship Study of Majusculamides A and B and Their Analogues on Osteogenic Activity” (J Nat Prod, 2020) come the findings set out here.

Activity calls are given as the source filed them. The calls are words filed in the database; no cut-off is given here.

Data set [1] relates to MC3T3-E1. Kind of data set: Osteogenic activity in mouse MC3T3-E1 cells assessed as mineralization at 30 uM after 6 days by Alizarin Red S staining-based method. Conditions: time 6.0 day. It is filed as functional, cell-based.
Data set [2] relates to MC3T3-E1. Kind of data set: Cytotoxicity against mouse MC3T3-E1 cells assessed as reduction in cell viability at 30 uM after 6 days by MTT assay. Format: cell-based. Conditions: mc3t3-e1, 144 h, time 6 day. In general terms: Formazan colour is commonly taken as a measure of viable cells.
Data set [3] relates to MC3T3-E1. Kind of data set: Activation of alkaline phosphatase secretion in mouse MC3T3-E1 cells at 30 uM using 4-nitrophenyl phosphate as substrate after 6 days. Format: cell-based. As to conditions: time 6.0 day.
In data set [4] the test system is MC3T3-E1. Kind of data set: Osteogenic activity in mouse MC3T3-E1 cells assessed as mineralization at >= 30 uM after 6 days by Alizarin Red S staining-based method. It is filed as functional, cell-based. Conditions: dose microM >=30, time 6.0 day.
For data set [5], the system named is MC3T3-E1. Kind of data set: Activation of alkaline phosphatase secretion in mouse MC3T3-E1 cells at >= 30 uM using 4-nitrophenyl phosphate as substrate after 6 days. Conditions: dose microM >=30, time 6.0 day. It is filed as cell-based.
Data set [6] deals with MC3T3-E1. Kind of data set: Cytotoxicity against mouse MC3T3-E1 cells assessed as reduction in cell viability at >= 30 uM after 6 days by MTT assay. Format: cell-based. Conditions: mc3t3-e1, 144 h, time 6 day.
In data set [7] the test system is MC3T3-E1. Kind of data set: Osteogenic activity in mouse MC3T3-E1 cells assessed as mineralization at 15 uM after 6 days by Alizarin Red S staining-based method. Format: functional, cell-based. As to conditions: time 6.0 day.
Data set [8] has as its system MC3T3-E1. Kind of data set: Osteogenic activity in mouse MC3T3-E1 cells assessed as mineralization at 7.5 uM after 6 days by Alizarin Red S staining-based method. Format: functional, cell-based. As to conditions: time 6.0 day.
Data set [9] deals with MC3T3-E1. Kind of data set: Activation of alkaline phosphatase secretion in mouse MC3T3-E1 cells at 15 uM using 4-nitrophenyl phosphate as substrate after 6 days. Format: cell-based. As to conditions: filed as activator, time 6.0 day.

Take `CCCCCCCC(=O)[C@@H](C)C(=O)N(C)[C@H](Cc1cc(Cl)c(OC)c(Cl)c1)C(=O)N(C)[C@H](C(N)=O)C(C)C`: the result with MC3T3-E1 [1] and in the data set with MC3T3-E1 [3] was inactive. In the data set with MC3T3-E1 [2], the Activity result is on record as “Toxic”.
On to `CCCCCCCC(=O)[C@@H](C)C(=O)N(C)[C@H](Cc1ccc(OC)cc1)C(=O)N(C)[C@H](C(N)=O)C(C)C`, for which the result with MC3T3-E1 [4] and in the data set with MC3T3-E1 [5] (filed as activator) was Active. Besides, in the data set with MC3T3-E1 [6], the Activity entry is listed as “Non-Toxic”.
`CCCCCCCCCC(=O)N(C)[C@H](Cc1ccc(OC)cc1)C(=O)N(C)[C@H](C(N)=O)C(C)C`: the outcome in the data set on MC3T3-E1 [4] and in the data set with MC3T3-E1 [5] (filed as activator) was Active. Further, in the data set on MC3T3-E1 [2], the Activity result is given as “Toxic”.
For `CCCCCCCC(=O)[C@@H](C)C(=O)N(C)[C@H](Cc1ccccc1)C(=O)N(C)[C@H](C(N)=O)C(C)C`, the result with MC3T3-E1 [4] was inactive. For the same compound, the result in the data set on MC3T3-E1 [5] (filed as activator) was Active.
On to `CCCC(=O)[C@@H](C)C(=O)N(C)[C@H](Cc1ccc(OC)cc1)C(=O)N(C)[C@H](C(N)=O)C(C)C`, for which the result in the data set on MC3T3-E1 [1] was inactive. For the same compound, in the data set with MC3T3-E1 [3] (filed as activator), the result was Active.
As for `CCCCCCCC(=O)[C@@H](C)C(=O)N(C)[C@H](Cc1ccc(OC)cc1)C(=O)N(C)[C@@H](C)C(N)=O`, the outcome in the data set on MC3T3-E1 [7], with MC3T3-E1 [5] (filed as activator) and in the data set with MC3T3-E1 [8] was Active. Moreover, in the data set with MC3T3-E1 [1], the result was inactive.
As for `CCCCCCC[C@H](O)[C@@H](C)C(=O)N(C)[C@H](Cc1ccc(OC)cc1)C(=O)N(C)[C@H](C(N)=O)C(C)C`, in the data set with MC3T3-E1 [1], the result was inactive. For the same compound, in the data set with MC3T3-E1 [3] (filed as activator), the outcome was Active.
As to `CCCCCCCC(=O)CC(=O)N(C)[C@H](Cc1ccc(OC)cc1)C(=O)N(C)[C@H](C(N)=O)C(C)C`, the outcome in the data set with MC3T3-E1 [4] was inactive. The result in the data set on MC3T3-E1 [5] (filed as activator) was Active.
As to `CCCCCCCC[C@H](C)C(=O)N(C)[C@H](Cc1ccc(OC)cc1)C(=O)N(C)[C@H](C(N)=O)C(C)C`, the result with MC3T3-E1 [4] and in the data set on MC3T3-E1 [5] was inactive. For the same compound, the outcome in the data set with MC3T3-E1 [1] was Active.
As for `CCCCCC(=O)[C@@H](C)C(=O)N(C)[C@H](Cc1ccc(OC)cc1)C(=O)N(C)[C@H](C(N)=O)C(C)C`, the outcome in the data set with MC3T3-E1 [1] was inactive. Also, in the data set on MC3T3-E1 [3] (filed as activator), the result was Active.
As to `CCCCCCCC(=O)[C@H](C)C(=O)N(C)[C@H](Cc1ccc(OC)cc1)C(=O)N(C)[C@H](C(N)=O)C(C)C`, the result in the data set on MC3T3-E1 [4] and in the data set with MC3T3-E1 [5] (filed as activator) was Active. The Activity entry in the data set with MC3T3-E1 [6] was “Non-Toxic”.
`CCCCCCC[C@@H](O)[C@H](C)C(=O)N(C)[C@H](Cc1ccc(OC)cc1)C(=O)N(C)[C@H](C(N)=O)C(C)C`: the result in the data set with MC3T3-E1 [1] and in the data set with MC3T3-E1 [3] (filed as activator) was Active.
In the case of `CCCCCCCC[C@@H](C)C(=O)N(C)[C@H](Cc1ccc(OC)cc1)C(=O)N(C)[C@H](C(N)=O)C(C)C`, the result with MC3T3-E1 [4] and in the data set with MC3T3-E1 [5] was inactive. Moreover, the result with MC3T3-E1 [1] was Active.
`CCCCCCCCCC(=O)[C@@H](C)C(=O)N(C)[C@H](Cc1ccc(OC)cc1)C(=O)N(C)[C@H](C(N)=O)C(C)C`: the result with MC3T3-E1 [7] was inactive. Besides, the Activity result in the data set with MC3T3-E1 [2] is listed as “Toxic”. Besides, the outcome with MC3T3-E1 [9] was Active.
`CCCCCCCC(=O)C(C)(C)C(=O)N(C)[C@H](Cc1ccc(OC)cc1)C(=O)N(C)[C@H](C(N)=O)C(C)C`: the result with MC3T3-E1 [4] was inactive. Further, the outcome in the data set with MC3T3-E1 [5] (filed as activator) was Active.
